# ± gives the standard deviation of the averaged measurements.
# Columns and labels:
# Experiment in all cases: level (log10 ratio to DMSO vehicle control); higher = higher biomarker level / cell amount than vehicle control
# [1] = compound: C=C(C)C(=O)OCCC(F)(F)C(F)(F)C(F)(F)C(F)(F)C(F)(F)C(F)(F)F [6:2 Fluorotelomer methacrylate]; conditions: in DMSO
# Method: (§1)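 BioMAP Diversity Plus panel of 12 human primary cell co-culture systems (3C, 4H, LPS, SAg, BT, BF4T, BE3C, CASM3C, HDF3CGF, KF3CT, MyoF, Mphg). Compounds were added 1 h before stimulation and left for 24 h (MyoF 48 h; BT 72 h for soluble read-outs or 6 d for IgG). Biomarkers were read by ELISA, cytotoxicity by SRB, PBMC viability and proliferation by Alamar Blue. Each well value was divided by the mean of 8 DMSO control wells on the same plate and log10 transformed; duplicate blinded samples were tested at 4 concentrations.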
# Hexafluoroamylene glycol = compound: OCC(F)(F)C(F)(F)C(F)(F)CO [Hexafluoroamylene glycol]; conditions: in DMSO
# Method: as §1
# [2] = compound: COC(=O)C(F)(F)C(F)(F)OC(F)(C(F)(F)F)C(F)(F)OC(F)=C(F)F [Methyl perfluoro(3-(1-ethenyloxypropan-2-yloxy)propanoate)]; conditions: in DMSO
# Method: as §1
# Nonafluoropentanamide = compound: NC(=O)C(F)(F)C(F)(F)C(F)(F)C(F)(F)F [Nonafluoropentanamide]; conditions: in DMSO
# Method: as §1
# [3] = compound: NS(=O)(=O)C(F)(F)C(F)(F)C(F)(F)C(F)(F)C(F)(F)C(F)(F)F [Perfluorohexanesulfonamide]; conditions: in DMSO
# Method: as §1
# [4] = compound: NC(=O)C(F)(F)C(F)(F)C(F)(F)C(F)F; conditions: in DMSO
# Method: as §1
# [5] = compound: FC(F)(F)C(F)(F)C(F)(F)C(F)(F)C(F)(F)C(F)(F)C(F)(F)I [1-Iodopentadecafluoroheptane]; conditions: in DMSO
# Method: as §1
# [6] = compound: O=S(=O)(O)C(F)(F)C(F)(F)C(F)(F)C(F)(F)C(F)(F)C(F)(F)C(F)(F)C(F)(F)C(F)(F)C(F)(F)F [Sodium perfluorodecanesulfonate]; conditions: in DMSO
# Method: as §1
# [7] = compound: FC(F)(F)C(F)(F)CNCC(F)(F)C(F)(F)F [Bis(1H,1H-perfluoropropyl)amine]; conditions: in DMSO
# Method: as §1
# [8] = compound: O=S(=O)(O)CCC(F)(F)C(F)(F)C(F)(F)C(F)(F)C(F)(F)C(F)(F)F [6:2 Fluorotelomer sulfonic acid]; conditions: in DMSO
# Method: as §1
# [9] = compound: O=S(=O)(F)C(F)(F)C(F)(F)C(F)(F)C(F)(F)C(F)(F)C(F)(F)C(F)(F)C(F)(F)F [Perfluorooctanesulfonyl fluoride]; conditions: in DMSO
# Method: as §1
# Heptafluorobutyl iodide = compound: FC(F)(F)C(F)(F)C(F)(F)CI [Heptafluorobutyl iodide]; conditions: in DMSO
# Method: as §1
# [10] = compound: O=C(O)C(F)(F)C(F)(F)C(F)(F)C(F)(F)C(F)(F)C(F)(F)C(F)(F)C(F)(F)C(F)(F)C(F)F [11-H-Perfluoroundecanoic acid]; conditions: in DMSO
# Method: as §1
# [11] = compound: O=S(=O)(Cl)C(F)(F)C(F)(F)C(F)(F)C(F)(F)C(F)(F)C(F)(F)C(F)(F)C(F)(F)F [Perfluoro-1-octanesulfonyl chloride]; conditions: in DMSO
# Method: as §1
# [12] = compound: FC(F)(F)C(F)(F)C(F)(F)C(F)(F)C(F)(F)C(F)(F)CC1CO1 [3-(Perfluorohexyl)-1,2-epoxypropane]; conditions: in DMSO
# Method: as §1
# [13] = compound: FC(F)(F)C(F)(F)C(F)(F)CC1CO1 [1H,1H-Heptafluorobutyl epoxide]; conditions: in DMSO
# Method: as §1
# [14] = compound: O=C(O)C=CC(F)(C(F)(F)F)C(F)(F)F [3-(Perfluoroisopropyl)-2-propenoic acid]; conditions: in DMSO
# Method: as §1
# Octafluoroadipamide = compound: NC(=O)C(F)(F)C(F)(F)C(F)(F)C(F)(F)C(N)=O [Octafluoroadipamide]; conditions: in DMSO
# Method: as §1
# [15] = compound: C=CC(=O)OCC(F)(F)C(F)(F)C(F)(F)COC(=O)C=C [1H,1H,5H,5H-Perfluoro-1,5-pentanediol diacrylate]; conditions: 6700 nM; in DMSO
# Method: as §1
test system,measurement,setting,value
MyoF:Collagen IV,level (log10),[1]; 6700 nM,-0.075 ± 0.11
same,level (log10),[1]; 20000 nM,-0.0395 ± 0.076
same,level (log10),[1]; 60000 nM,-0.02 ± 0.1
same,level (log10),Hexafluoroamylene glycol; 6700 nM,-0.0165 ± 0.042
same,level (log10),Hexafluoroamylene glycol; 20000 nM,-0.0015 ± 0.026
same,level (log10),Hexafluoroamylene glycol; 60000 nM,-0.0035 ± 0.00071
same,level (log10),[2]; 6700 nM,-0.0215 ± 0.04
same,level (log10),[2]; 20000 nM,-0.0235 ± 0.028
same,level (log10),Nonafluoropentanamide; 6700 nM,-0.051 ± 0.12
same,level (log10),Nonafluoropentanamide; 20000 nM,-0.0655 ± 0.054
same,level (log10),Nonafluoropentanamide; 60000 nM,-0.0655 ± 0.064
same,level (log10),[3]; 6700 nM,0.0555 ± 0.023
same,level (log10),[3]; 20000 nM,0.202 ± 0.025
same,level (log10),[3]; 60000 nM,0.408 ± 0.016
same,level (log10),[4]; 6700 nM,-0.0075 ± 0.0035
same,level (log10),[4]; 20000 nM,-0.007 ± 0.028
same,level (log10),[4]; 60000 nM,0.014 ± 0.038
same,level (log10),[5]; 6700 nM,0.0705 ± 0.049
same,level (log10),[5]; 20000 nM,0.279 ± 0.09
same,level (log10),[6]; 1500 nM,0.014 ± 0.02
same,level (log10),[6]; 4400 nM,0.035 ± 0.0085
same,level (log10),[6]; 13000 nM,0.0215 ± 0.0035
same,level (log10),[6]; 40000 nM,0.0065 ± 0.033
same,level (log10),[7]; 6700 nM,-0.014 ± 0.03
same,level (log10),[7]; 20000 nM,-0.0275 ± 0.015
same,level (log10),[7]; 60000 nM,-0.008 ± 0.03
same,level (log10),[8]; 6700 nM,-0.0185 ± 0.033
same,level (log10),[8]; 20000 nM,-0.006 ± 0.023
same,level (log10),[8]; 60000 nM,-0.002 ± 0.014
same,level (log10),[9]; 6700 nM,0.0015 ± 0.015
same,level (log10),[9]; 20000 nM,0.023 ± 0.025
same,level (log10),[9]; 60000 nM,0.0235 ± 0.018
same,level (log10),Heptafluorobutyl iodide; 6700 nM,-0.021 ± 0.0071
same,level (log10),Heptafluorobutyl iodide; 20000 nM,-0.0325 ± 0.016
same,level (log10),Heptafluorobutyl iodide; 60000 nM,-0.0185 ± 0.039
same,level (log10),[10]; 6700 nM,0.141 ± 0.0028
same,level (log10),[10]; 20000 nM,0.293 ± 0.034
same,level (log10),[11]; 6700 nM,0.014 ± 0.011
same,level (log10),[11]; 20000 nM,0.052 ± 0.023
same,level (log10),[11]; 60000 nM,0.241 ± 0.037
same,level (log10),[12]; 6700 nM,0.002 ± 0.025
same,level (log10),[12]; 20000 nM,0.0185 ± 0.0021
same,level (log10),[12]; 60000 nM,0.0425 ± 0.053
same,level (log10),[13]; 6700 nM,-0.0125 ± 0.015
same,level (log10),[13]; 20000 nM,0 ± 0.0099
same,level (log10),[13]; 60000 nM,0.001 ± 0.035
same,level (log10),[14]; 6700 nM,-0.01 ± 0.023
same,level (log10),[14]; 20000 nM,0.0025 ± 0.0078
same,level (log10),[14]; 60000 nM,0.0205 ± 0.022
same,level (log10),Octafluoroadipamide; 6700 nM,-0.0165 ± 0.015
same,level (log10),Octafluoroadipamide; 20000 nM,-0.0065 ± 0.0064
same,level (log10),Octafluoroadipamide; 60000 nM,0.003 ± 0.038
same,level (log10),[15],0.03 ± 0.047
LPS:SRB,level (log10),[1]; 6700 nM,-0.003 ± 0.0042
same,level (log10),[1]; 20000 nM,-0.0035 ± 0.0064
same,level (log10),[1]; 60000 nM,-0.0025 ± 0.00071
same,level (log10),Hexafluoroamylene glycol; 6700 nM,-0.004 ± 0.0028
same,level (log10),Hexafluoroamylene glycol; 20000 nM,-0.0095 ± 0.015
same,level (log10),Hexafluoroamylene glycol; 60000 nM,0.002 ± 0.018
same,level (log10),[2]; 6700 nM,-0.012
same,level (log10),[2]; 20000 nM,-0.0085 ± 0.0078
same,level (log10),Nonafluoropentanamide; 6700 nM,0.0015 ± 0.011
same,level (log10),Nonafluoropentanamide; 20000 nM,-0.0065 ± 0.005
same,level (log10),Nonafluoropentanamide; 60000 nM,-0.003 ± 0.0042
same,level (log10),[3]; 6700 nM,-0.012 ± 0.0071
same,level (log10),[3]; 20000 nM,-0.017 ± 0.0057
same,level (log10),[3]; 60000 nM,-0.0975 ± 0.029
same,level (log10),[4]; 6700 nM,-0.011 ± 0.0071
same,level (log10),[4]; 20000 nM,-0.006 ± 0.0042
same,level (log10),[4]; 60000 nM,-0.0105 ± 0.00071
same,level (log10),[5]; 6700 nM,0.0035 ± 0.0064
same,level (log10),[5]; 20000 nM,0.003 ± 0.0042
same,level (log10),[6]; 1500 nM,0.0025 ± 0.0021
same,level (log10),[6]; 4400 nM,-0.001 ± 0.0057
same,level (log10),[6]; 13000 nM,-0.0105 ± 0.00071
same,level (log10),[6]; 40000 nM,-0.02 ± 0.017
same,level (log10),[7]; 6700 nM,-0.008 ± 0.0042
same,level (log10),[7]; 20000 nM,0.001 ± 0.016
same,level (log10),[7]; 60000 nM,-0.0015 ± 0.0021
same,level (log10),[8]; 6700 nM,-0.0055 ± 0.00071
same,level (log10),[8]; 20000 nM,-0.0005 ± 0.0064
same,level (log10),[8]; 60000 nM,-0.001 ± 0.023
same,level (log10),[9]; 6700 nM,-0.008 ± 0.0071
same,level (log10),[9]; 20000 nM,-0.0025 ± 0.0064
same,level (log10),[9]; 60000 nM,-0.002 ± 0.013
same,level (log10),Heptafluorobutyl iodide; 6700 nM,-0.0035 ± 0.0021
same,level (log10),Heptafluorobutyl iodide; 20000 nM,-0.0095 ± 0.0021
same,level (log10),Heptafluorobutyl iodide; 60000 nM,0.0045 ± 0.021
same,level (log10),[10]; 6700 nM,0.0045 ± 0.013
same,level (log10),[10]; 20000 nM,0.0055 ± 0.005
same,level (log10),[11]; 6700 nM,0.0035 ± 0.0035
same,level (log10),[11]; 20000 nM,0.005 ± 0.0028
same,level (log10),[11]; 60000 nM,-0.043 ± 0.023
same,level (log10),[12]; 6700 nM,-0.0045 ± 0.0035
same,level (log10),[12]; 20000 nM,-0.003
same,level (log10),[12]; 60000 nM,-0.002 ± 0.0057
same,level (log10),[13]; 6700 nM,0.0085 ± 0.013
same,level (log10),[13]; 20000 nM,0.002
same,level (log10),[13]; 60000 nM,-0.005 ± 0.0071
same,level (log10),[14]; 6700 nM,-0.0015 ± 0.018
same,level (log10),[14]; 20000 nM,-0.011 ± 0.016
same,level (log10),[14]; 60000 nM,-0.0115 ± 0.028
same,level (log10),Octafluoroadipamide; 6700 nM,-0.003 ± 0.011
same,level (log10),Octafluoroadipamide; 20000 nM,-0.0075 ± 0.0092
same,level (log10),Octafluoroadipamide; 60000 nM,0.0015 ± 0.0035
same,level (log10),[15],-0.02 ± 0.0042

# — the supplement of paper PMC10331698
